In article PMC9896555, “Cyclic Acetals as Novel Long-Lasting Mosquito Repellents” (Journal of Agricultural and Food Chemistry, 2023):
Read-outs that look alike come from different tables or passages of the source.

Tested on: Aedes albopictus
Assay: Protection time at 0.17 mg/cm2, human-bait technique
Format: in vivo
Conditions: for Average PT >95% (% coefficient of variation) / Estimated 100% PT (complete protection time, mean±SE): at the dose of 0.17mg/cm2; for Estimated 100% PT (complete protection time, mean±SE): Kaplan–Meier estimate; for pest or weed control at 0.17 mg/cm2, 0.17 mg/cm2: Aedes albopictus, topical, read-out: Protection time PE%; for Protection time (95% protection): dose of 0.17 mg/cm^2, tests ended after 8 h
Protocol: To evaluate the protection time of derivatives, the PE % was measured with 100 μL of a 5% ethanol solution, corresponding to 0.17 mg/cm^2 of exposed skin, under the same laboratory conditions. Mosquito-exposed skin was treated with 100 μL of ethanol, as the negative hand control. For each volunteer (up to 8), the test was performed every hour, up to 8 h from the application. The protection time of DEET and Icaridin was measured under the same conditions. Since these trials were run in parallel with those aimed to profile the cytotoxicity of the compounds (paragraph 2.6), we interrupted the experiments for those compounds showing to have higher cytotoxicity than Icaridin and DEET as soon as the results were available. For this reason, the number of volunteers differs among the compounds.
The average time until protection which was higher than 95% protection time was considered for each compound. Moreover, for the compounds tested on at least three volunteers, the complete (100%) protection time was also estimated (SPSS 28.01.0) using the Kaplan–Meier survivor function procedure.[22]

Row | SMILES | Protection time PE% (0.17mg/cm2, 0 min) [%] | Protection time PE% (0.17mg/cm2, 1 h) [%] | Protection time PE% (0.17mg/cm2, 2 h) [%] | Protection time PE% (0.17mg/cm2, 3 h) [%] | Protection time PE% (0.17mg/cm2, 4 h) [%] | Protection time PE% (0.17mg/cm2, 5 h) [%] | Protection time PE% (0.17mg/cm2, 6 h) [%] | Protection time PE% (0.17mg/cm2, 7 h) [%] | Protection time PE% (0.17mg/cm2, 8 h) [%] | Average PT >95% (% coefficient of variation) | Estimated 100% PT (complete protection time, mean±SE) [min] | also measured
1 | CC(C)CC1(CC(C)C)OCC(CO)O1 (racemic) [17a] | 100 | 100 | 100 | 100 | 98 | 98.39 | 92.05 | 74.4 | 43.92 | 300 (2.3) min | – | –
2 | CC1(CCc2ccccc2)OCC(CO)O1 (mixture of isomers) [20a] | – | – | – | – | – | – | – | – | – | 0 min | – | –
3 | CCCCCC1(CC)OCC(CO)O1 (mixture of isomers) [11a] | 100 | 100 | 100 | 100 | 98.12 | 93.19 | 72.96 | – | – | 240 (3.8) min | 345 ± 66 | –
4 | CCCC1(CCC)OCC(C)(CO)CO1 [7b] | 100 | 99.45 | 100 | 99.21 | 98.74 | 98.42 | 84.33 | – | – | 300 (1.4) min | 220 ± 87 | –
5 | CCCCCCCCCCCC1OCC(CO)O1 (mixture of isomers) [24a] | – | – | – | – | – | – | – | – | – | 0 min | – | –
6 | CC(C)=CCCC1(C)OCC(CO)O1 (mixture of isomers) [8a] | 100 | 100 | 100 | 100 | 100 | 99.39 | 100 | 97.44 | 84.95 | – | – | –
7 | CC1(CO)COC2(CCCCCCC2)OC1 [12b] | – | – | – | – | – | – | – | – | – | 420 (3.1) min | 240 ± 60 | pest or weed control at 0.17 mg/cm2, 0.17 mg/cm2 (0.17mg/cm2, 1 h): 100%; pest or weed control at 0.17 mg/cm2, 0.17 mg/cm2 (0.17mg/cm2, 2 h): 99.5%; pest or weed control at 0.17 mg/cm2, 0.17 mg/cm2 (0.17mg/cm2, 3 h): 98.7%; pest or weed control at 0.17 mg/cm2, 0.17 mg/cm2 (0.17mg/cm2, 4 h): 97.8%; pest or weed control at 0.17 mg/cm2, 0.17 mg/cm2 (0.17mg/cm2, 5 h): 97.2%; pest or weed control at 0.17 mg/cm2, 0.17 mg/cm2 (0.17mg/cm2, 6 h): 93.8%; pest or weed control at 0.17 mg/cm2, 0.17 mg/cm2 (0.17mg/cm2, 7 h): 98.2%; pest or weed control at 0.17 mg/cm2, 0.17 mg/cm2 (0.17mg/cm2, 8 h): 94.9%; Protection time (95% protection): 7 h
8 | OCC1COC2(CCCCCCCCCCC2)O1 (racemic) [25a] | – | – | – | – | – | – | – | – | – | 0 min | – | –
9 | CCC1(CO)COC(CC(C)C)(CC(C)C)OC1 [17c] | 98.72 | 97.92 | 98.68 | 100 | 98.44 | 98.08 | 98.53 | 100 | 100 | 480 (0) min | – | Protection time (95% protection): 8 h
